From US8765941B2 (Kino Pharma, Inc., priority 2008, dated 2014)
Like-named read-outs stand apart in the source and are kept apart here.

Key:
[1] = tested on: LuHCV cells; experiment: Evaluation of cell growth suppression using LuHCV cells (percentage of viable cells, reagent SF); type: cell-based, human; settings: 48 hours, DMSO = 100%
Description: At this time, as a background absorbance, measurement was also performed for wells containing test compounds (or DMSO used as a control), but containing no cells. Each of the thus obtained background numerical values was deducted from the absorbance of a cell-containing well (measured for the same compound at the same concentration). The resulting value was designated as actual measurement of number of viable cells containing no background. […] With an average value measured for DMSO used as a control test substance designated as 100%, the percentage of the number of viable cells for each test compound was calculated.
At this time, as a background absorbance, measurement was also performed for wells containing test compounds (or containing DMSO used as a control), but containing no cells. Each of the thus obtained background numerical values was deducted from the absorbance of a cell-containing well (measured for the same compound at the same concentration). The resulting value was designated as actual measurement of number of viable cells containing no background. […] By using a value measured upon addition of DMSO used as a control test substance designated as 100%, the percentage of the number of viable cells for each test compound was calculated. Table 1-2 and FIG. 2B show the percentage of the number of viable cells (cell viability (% control)) for each test compound at each concentration.

[2] = tested on: intracellular HCV protein (NS3-NS4-NS5A-NS5B); experiment: HCV viral protein expression assay using LuHCV cells (luciferase activity); settings: for activity at 10 µM / activity at 20 µM: Hepatitis C virus, 48 h, read-out: luc activity (% control); for luciferase activity (result in words): 0, 10 and 20 μM
Description: As an HCV viral protein expression assay, screening was performed for compounds having anti-HCV activity using human hepatocytes with which the replication and expression of the intracellular HCV protein (NS3-NS4-NS5A-NS5B) can be evaluated through determination of luciferase activity (hereinafter, referred to as LuHCV).
LuHCV cells were plated onto 96-well plates at 5×10^3 cells/50 μL/well and then incubated overnight. Test compounds were each dissolved in dimethyl sulfoxide (DMSO) and dilution series were prepared using DMSO, if necessary. On the next day of plating of LuHCV cells, a medium containing a test compound with a concentration twice the final test concentration was added at 50 μL/well. Cells were gently cultured under culture conditions of 48 hours, 37° C., and 5% CO2 (the final concentrations of the test compounds: 0, 10, and 20 μM). At this time, analysis was made using 3 test wells for each test compound and for each concentration.
Culture medium was removed after 48 hours. Glo lysis buffer (100 μL) (Promega) was added to each well and then cells were disrupted, so that a cell extract was obtained. With the use of 50 μL of the thus obtained cell extract, 50 μL of a Bright-Glo™ Luciferase Assay System (Promega) reagent was added. Luciferase activity in the extract was determined by measuring luminescence intensity for one second using a measuring device ARVO (PerkinElmer Co., Ltd.).
Based on the thus obtained numerical values of luminescence intensity, an average value for each test compound at each concentration was calculated. The luminescence intensity percentage for each test compound was calculated based on a luminescence intensity for DMSO (used as a control for test substances) as 100%.
Culture medium was removed after 48 hours. Glo Lysis buffer (100 μL) (Promega) was added to each well and then cells were disrupted, so that a cell extract was obtained. With the use of 50 μL of the thus obtained cell extract, 50 μL of a Bright-Glo™ Luciferase Assay System (Promega) reagent was added. Luciferase activity in the extract was determined by measuring luminescence intensity for one second using a measuring device ARVO (PerkinElmer Co., Ltd.).
Based on the thus obtained numerical values of luminescence intensity, an average value for each test compound at each concentration was calculated. The luminescence intensity percentage for each test compound was calculated based on a luminescence intensity of DMSO (used as a control for test substances) as 100%.

[3] = tested on: influenza virus; settings: for cell death due to influenza virus infection (result in words): 5 and 10 μM, 48 hours, MDCK cells

Structure (SMILES) | viability (% control) ([1]; 10 μM) | viability (% control) ([1]; 20 μM) | activity at 10 µM [2] | activity at 20 µM [2] | luciferase activity (result in words) ([2]; 48 hours, LuHCV cells) | decrease in luminescence intensity compared with the control ([2]; 10 μM, 48 hours, LuHCV cells) | viability (% control) ([3]; 5 µM) | viability (% control) ([3]; 10 µM) | cell death due to influenza virus infection (result in words) [3]
O=C(Nc1cc(C(F)(F)F)ccc1N1CCC[C@H]2CCCC[C@@H]21)c1ccncc1 (relative stereo) [Compound 19, N-[2-(trans-2-azabicyclo[4.4.0]decan-2-yl)-5-(trifluoromethyl)phenyl]isonicotinamide] | 99.02 % control | 91.02 % control | 51% | 33.5% | – | – | – | – | –
FC(F)(F)c1ccc(N2CCC[C@H]3CCCC[C@@H]32)c(NC(=S)c2ccncc2)c1 (relative stereo) [Compound 21, N-[2-(trans-2-azabicyclo[4.4.0]-decan-2-yl)-5-(trifluoromethyl)phenyl]isonicotinthioamide] | 94.44 % control | 93.56 % control | 56.8% | 34% | – | – | – | – | –
FC(F)(F)c1ccc(N2CC[C@H]3CCCC[C@@H]3C2)c(NC(=S)c2ccncc2)c1 (relative stereo) [Compound 22, N-[2-(trans-3-azabicyclo[4.4.0]decan-3-yl)-5-(trifluoromethyl)phenyl]isonicotinthioamide] | 104.65 % control | 96.39 % control | 42.6% | 21.9% | – | – | – | – | –
O=C(NC(=S)Nc1cc(C(F)(F)F)ccc1N1CC[C@H]2CCCC[C@@H]2C1)c1ccccc1 (relative stereo) [Compound 23, 1-benzoyl-3-[2-(trans-3-azabicyclo[4.4.0]decan-3-yl)-5-(trifluoromethyl)phenyl]thiourea] | 106.72 % control | 104.93 % control | 64% | 49.4% | – | – | – | – | –
FC(F)(F)c1ccc(N2CCCCC2)c(NC(=S)c2ccncc2)c1 [Compound 2, N-[2-(1-piperidinyl)-5-(trifluoromethyl)phenyl]isonicotinthioamide] | – | – | – | – | Decreases in luciferase activity | – | – | – | –
O=C(NC(=S)Nc1cc(C(F)(F)F)ccc1N1CCCCC1)c1cccnc1 [Compound 3, 1-nicotinoyl-3-[2-(1-piperidinyl)-5-(trifluoromethyl)phenyl]thiourea] | 103.79 % control | 93.82 % control | 69.3% | 43.2% | – | – | – | – | –
O=C(NC(=S)Nc1cc(C(F)(F)F)ccc1N1CCCCCC1)c1cccnc1 [Compound 4, N-nicotinoyl-N′[2-(azacycloheptan-1-yl)-5-(trifluoromethyl)phenyl]thiourea] | 93.86 % control | 89.76 % control | 65.8% | 44.5% | – | – | – | – | –
O=C(NC(=S)Nc1cc(C(F)(F)F)ccc1N1CCCCCCCC1)c1cccnc1 [Compound 6, N-nicotinoyl-N′-[2-(azacyclononan-1-yl)-5-(trifluoromethyl)phenyl]thiourea] | – | – | – | – | Decreases in luciferase activity | about 50% | 42.1 ± 1.5 % control | 80.9 ± 3.2 % control | cell death was decreased
O=C(NC(=S)Nc1cc(C(F)(F)F)ccc1N1CCCCCCC1)c1ccncc1 [Compound 7, N-isonicotinoyl-N′-[2-(azacyclooctan-1-yl)-5-(trifluoromethyl)phenyl]thiourea] | 76.97 % control | 71.85 % control | 30.7% | 16.4% | – | – | – | – | –
O=C(NC(=O)c1cccnc1)Nc1cc(C(F)(F)F)ccc1N1CCCCCCC1 [Compound 8, N-nicotinoyl-N′-[2-(azacyclooctan-1-yl)-5-(trifluoro-methyl)phenyl]urea] | 77.35 % control | 77.81 % control | 55.7% | 58% | – | – | – | – | –
O=C(NC(=S)Nc1cc(F)ccc1N1CCCCCCC1)c1cccnc1 [Compound 9] | 82.79 % control | 73.39 % control | 33.6% | 26% | – | – | – | – | –
Cc1ccc(C(=O)NC(=S)Nc2cc(C(F)(F)F)ccc2N2CCCCCCC2)cn1 [Compound 10, N-(6-methylnicotinoyl)-N′-[2-(azacyclo-octan-1-yl)-5-(trifluoro-methyl)phenyl]thiourea] | 96.19 % control | 89.38 % control | 41.2% | 26.9% | – | – | – | – | –
Cc1ccc(C(=O)NC(=S)Nc2cc(C(F)(F)F)ccc2N2CCCCCCC2)cc1 [Compound 11] | 89.95 % control | 89.20 % control | 35.8% | 29.8% | – | – | – | – | –
COc1ccc(C(=O)NC(=S)Nc2cc(C(F)(F)F)ccc2N2CCCCCCC2)cc1 [Compound 12, N-(4-methoxybenzoyl)-N′-[2-(azacyclooctan-1-yl)-5-(trifluoromethyl)phenyl]thiourea] | 94.69 % control | 88.78 % control | 32.8% | 28.6% | – | – | – | – | –
O=C(NC(=S)Nc1cc(C(F)(F)F)ccc1N1CCCCCCC1)c1ccc(F)cc1 [Compound 13, N-(4-fluorobenzoyl)-N′-[2-(azacyclooctan-1-yl)-5-(trifluoromethyl)phenyl]thiourea] | 101.56 % control | 104.05 % control | 34.1% | 28.5% | – | – | – | – | –
O=C(NC(=S)Nc1cc(C(F)(F)F)ccc1N1CCCCCCC1)c1ccccc1 [Compound 14, N-benzoyl-N′-[2-(azacyclooctan-1-yl)-5-(trifluoromethyl)phenyl]thiourea] | 103.81 % control | 103.76 % control | 30.3% | 14.8% | – | – | 71.6 ± 2.2 % control | 100.0 ± 2.0 % control | cell death was decreased
COc1ccccc1C(=O)NC(=S)Nc1cc(C(F)(F)F)ccc1N1CCCCCCC1 [Compound 15, N-(2-methoxybenzoyl)-N′-[2-(azacyclooctan-1-yl)-5-(trifluoromethyl)phenyl]thiourea] | 107.86 % control | 107.33 % control | 45.8% | 37.6% | – | – | – | – | –
O=C(NC(=S)Nc1cc(C(F)(F)F)ccc1F)c1cccnc1 [Compound 16, N-nicotinoyl-N′-[2-fluoro-5-(trifluoro-methyl)phenyl]thiourea] | 85.21 % control | 79.86 % control | 58.1% | 48.9% | – | – | – | – | –
O=C(NC(=S)Nc1cc(C(F)(F)F)ccc1N1CCCCCCC1)c1ccoc1 [Compound 17] | 112.89 % control | 108.81 % control | 26.1% | 17.6% | – | – | – | – | –
O=C(Nc1cc(C(F)(F)F)ccc1N1CCCCCCCC1)c1ccncc1 [Compound 20, W[2-(azacyclononan-1-yl)-5-(trifluoromethyl)-phenyl]isonicotinamide] | 111.50 % control | 105.35 % control | 48.3% | 22.7% | – | – | – | – | –
O=C(NC(=S)Nc1cc(C(F)(F)F)ccc1N1CCCCCCCC1)c1ccccc1 [Compound 24, 1-benzoyl-3-[2-(azacyclononan-1-yl)-5-(trifluoro-methyl)phenyl]thiourea] | 108.20 % control | 110.15 % control | 56.4% | 39.4% | – | – | – | – | –
